The record followed here is ChEMBL document CHEMBL1132350, “Quantitative structure-activity relationship modeling of dopamine D(1) antagonists using comparative molecular field analysis, genetic algorithms-partial least-squares, and K nearest neighbor methods” (J Med Chem, 1999).

Sequence of D(1A) dopamine receptor (Rattus norvegicus) (P18901 whole entry): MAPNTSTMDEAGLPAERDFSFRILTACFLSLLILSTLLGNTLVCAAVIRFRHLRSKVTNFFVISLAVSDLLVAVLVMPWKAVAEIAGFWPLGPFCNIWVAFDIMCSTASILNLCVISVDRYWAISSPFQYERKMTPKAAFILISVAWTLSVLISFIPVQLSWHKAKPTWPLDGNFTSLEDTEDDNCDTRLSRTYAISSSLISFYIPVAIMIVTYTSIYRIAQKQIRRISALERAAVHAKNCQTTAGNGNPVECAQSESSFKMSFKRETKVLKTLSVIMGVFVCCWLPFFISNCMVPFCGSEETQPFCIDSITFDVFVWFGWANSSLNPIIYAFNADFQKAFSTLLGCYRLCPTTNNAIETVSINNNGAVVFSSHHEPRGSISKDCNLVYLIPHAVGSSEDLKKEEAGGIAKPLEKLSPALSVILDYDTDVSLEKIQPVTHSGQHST

The experiment addresses D(1A) dopamine receptor (Rattus norvegicus) (UniProt P18901). The conditions noted are these: Striatum.
Description: Affinity towards dopamine receptor D1 in rat corpus striatum tissue.
Compound `CN1CCc2cc(Cl)c(O)cc2C1c1ccccc1Cl` (stereo not given) showed a -Log K0.5 of 8.43. With `Cc1ccc(C2c3cc(O)c(Cl)cc3CCN2C)cc1` (stereo not given) the figure was 8.28.

Turning to `CC(C)c1ccccc1C1c2cc(O)c(Cl)cc2CCN1C` (stereo not given), the -Log K0.5 was found to be 8.56.

As to `NC1CCc2ccc(O)cc2C1c1ccccc1` (stereo not given), the -Log K0.5 turned out to be 5.53.

In turn, `CN(C)CCCCCCN1CCc2cc(Cl)c(O)cc2C(c2ccccc2)C1` (stereo not given) gave a -Log K0.5 of 6.94. The figure for `CN1CCc2ccccc2C2c3cc(O)c(I)cc3CCC21` (stereo not given) is 5.96; for `CN(C)C1CCc2ccc(O)cc2C1c1ccccc1` (stereo not given) it is 5.85.

`CN(C)c1ccccc1/C=C/N1CCc2cc(Cl)c(O)cc2C(c2ccccc2)C1` (stereo not given) displayed a -Log K0.5 of 7.54. The figure for `Cc1ccccc1C1c2cc(O)c(Cl)cc2CCN1C` (stereo not given) is 8.43; for `CN1CCc2cc(Cl)c(O)cc2[C@@H](c2ccccc2)C1` it is 9.4. With `Cc1cccc(C2c3cc(O)c(Cl)cc3CCN2C)c1C` (stereo not given) the figure was 8; with `CN1CCc2cc(Br)c(O)cc2C1c1ccccc1` (stereo not given), 7.97.

`CCCNC1CCc2ccc(O)cc2C1c1ccccc1` (stereo not given) gave a -Log K0.5 of 6.02.

In the case of `Oc1cc2c(cc1Cl)CCN1CCc3ccccc3C21` (stereo not given), the -Log K0.5 is 5.68. The figure for `CNC1CCc2ccc(O)cc2C1c1ccccc1` (stereo not given) is 5.46; for `CN1CCc2cc(Cl)c(O)cc2C1Cc1ccccc1` (stereo not given) it is 7.24; for `CCCN(C)C1CCc2ccc(O)cc2C1c1ccccc1` (stereo not given) it is 5.82. With `Cc1cccc(C2c3cc(O)c(Cl)cc3CCN2C)c1` (stereo not given) the figure was 8.38; with `CN1CCc2cc(Cl)c(O)cc2C2c3ccccc3CCC21` (stereo not given), 8.3. Regarding `CN(C)c1ccccc1CCN1CCc2cc(Cl)c(O)cc2C(c2ccccc2)C1` (stereo not given), the -Log K0.5 turned out to be 7.43. With `CN1CCc2ccc(O)cc2C1c1ccccc1` (stereo not given) the figure was 6.37. The figure for `CCCN1CCc2cc(Cl)c(O)cc2C1c1ccccc1` (stereo not given) is 7.05; for `CNCCCCCCN1CCc2cc(Cl)c(O)cc2C(c2ccccc2)C1` (stereo not given) it is 6.86. For `Cc1cccc(C)c1C1c2cc(O)c(Cl)cc2CCN1C` (stereo not given), the -Log K0.5 was 8.43. With `CN1CCc2cc(Cl)c(O)cc2C1c1ccccc1` (stereo not given) the figure was 8.28.
